The values that follow come from patent US10308643B2, “Heterocyclic compound” (Takeda Pharmaceutical Company Limited, priority 2015, dated 2019).

Holding throughout (type): biochemical
One assay concerns the target T1, HDAC6 enzyme (Homo sapiens, UniProt Q9UBN7).
T1 construct: transducing full length HDAC1 and HDAC6 genes into Sf-9 insect cells; GST; purchased SignalChem; host or cells: Sf-9 insect cells
T1 sequence (Q9UBN7 1-1215): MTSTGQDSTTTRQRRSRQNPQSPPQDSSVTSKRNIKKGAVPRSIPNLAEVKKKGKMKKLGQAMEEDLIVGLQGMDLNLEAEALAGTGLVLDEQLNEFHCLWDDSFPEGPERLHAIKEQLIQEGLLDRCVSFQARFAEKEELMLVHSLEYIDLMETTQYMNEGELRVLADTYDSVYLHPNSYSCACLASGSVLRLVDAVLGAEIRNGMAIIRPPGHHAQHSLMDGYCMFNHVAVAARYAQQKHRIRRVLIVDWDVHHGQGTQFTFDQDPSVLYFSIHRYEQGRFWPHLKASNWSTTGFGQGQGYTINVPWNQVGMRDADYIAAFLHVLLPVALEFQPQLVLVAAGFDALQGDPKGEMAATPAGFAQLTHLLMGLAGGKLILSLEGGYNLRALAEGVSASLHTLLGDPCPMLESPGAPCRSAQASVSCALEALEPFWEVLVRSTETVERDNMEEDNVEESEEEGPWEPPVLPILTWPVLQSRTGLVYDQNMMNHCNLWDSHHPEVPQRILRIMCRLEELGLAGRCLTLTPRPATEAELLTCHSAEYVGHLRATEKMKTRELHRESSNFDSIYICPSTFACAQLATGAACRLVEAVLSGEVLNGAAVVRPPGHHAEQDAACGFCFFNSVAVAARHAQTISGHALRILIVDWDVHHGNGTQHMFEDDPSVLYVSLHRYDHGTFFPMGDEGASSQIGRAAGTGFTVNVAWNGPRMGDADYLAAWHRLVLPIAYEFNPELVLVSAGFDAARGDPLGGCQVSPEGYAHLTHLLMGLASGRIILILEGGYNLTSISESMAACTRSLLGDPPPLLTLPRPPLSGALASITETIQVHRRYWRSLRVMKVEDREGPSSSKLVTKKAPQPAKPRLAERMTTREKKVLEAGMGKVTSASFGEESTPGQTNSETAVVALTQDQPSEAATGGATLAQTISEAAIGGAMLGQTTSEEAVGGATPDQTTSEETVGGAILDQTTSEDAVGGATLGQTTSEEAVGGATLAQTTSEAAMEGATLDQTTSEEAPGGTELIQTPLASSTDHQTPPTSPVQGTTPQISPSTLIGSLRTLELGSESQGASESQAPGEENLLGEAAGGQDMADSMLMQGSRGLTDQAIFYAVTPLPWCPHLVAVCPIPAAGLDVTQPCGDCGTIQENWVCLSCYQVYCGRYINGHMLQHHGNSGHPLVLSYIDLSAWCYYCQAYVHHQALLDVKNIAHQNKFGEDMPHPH
In words: HDAC1/6 Enzyme Inhibitory Assay (HDAC-Glo I/II Assay kit), HDAC6. The note with it: 1 μM test compound; wells without enzyme = 100% inhibition; read-out: HDAC6 inhibitory rate (%) (1 μM). A digest of the protocol:
(§1)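 Luminescent HDAC-Glo I/II read-out was taken 20 min after adding substrate-developer, at room temperature. Before this, compound and enzyme were held together for 60 min in 24 mM Tris-HCl pH 7.5 with 0.6 mM glutathione and 0.01% Tween-20. The enzyme was full-length HDAC1 or HDAC6 from Sf-9 cells, GST-purified. Wells without enzyme defined 100% inhibition.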

The target of the next assay is T2, HDAC1 enzyme (Homo sapiens, UniProt Q13547).
T2 construct: transducing full length HDAC1 and HDAC6 genes into Sf-9 insect cells; GST; purchased SignalChem; host or cells: Sf-9 insect cells
T2 sequence (Q13547 whole entry): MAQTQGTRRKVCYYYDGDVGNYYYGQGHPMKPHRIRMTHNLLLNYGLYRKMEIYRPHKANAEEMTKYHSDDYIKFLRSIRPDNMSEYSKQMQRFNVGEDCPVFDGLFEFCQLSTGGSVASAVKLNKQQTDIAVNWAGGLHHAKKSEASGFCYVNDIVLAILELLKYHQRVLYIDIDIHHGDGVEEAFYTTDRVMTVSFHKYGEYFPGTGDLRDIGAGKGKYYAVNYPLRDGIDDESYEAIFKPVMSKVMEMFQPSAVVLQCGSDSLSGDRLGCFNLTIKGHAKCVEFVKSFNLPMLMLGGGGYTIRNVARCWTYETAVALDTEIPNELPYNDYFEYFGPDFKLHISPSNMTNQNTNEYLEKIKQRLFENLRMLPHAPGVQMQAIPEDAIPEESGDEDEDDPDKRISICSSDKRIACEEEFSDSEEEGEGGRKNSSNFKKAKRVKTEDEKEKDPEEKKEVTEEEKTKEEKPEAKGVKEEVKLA
Kind of assay: HDAC1/6 Enzyme Inhibitory Assay (HDAC-Glo I/II Assay kit), HDAC1. The note with it: 1 μM test compound; wells without enzyme = 100% inhibition; read-out: HDAC1 inhibitory rate (%) (1 μM). The gist of the method:
as §1

A further assay concerns the target T3, HDAC9 enzyme (Homo sapiens, UniProt Q9UKV0).
T3 construct: transducing full length HDAC9 gene into Sf-9 insect cells; made in house; host or cells: Sf-9 insect cells
In words: HDAC9 Enzyme Inhibitory Assay (HDAC-Glo class IIa). The note with it: 1 μM test compound; wells without enzyme = 100% inhibition; read-out: HDAC9 inhibitory rate (%) (1 μM). The gist of the method:
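Full-length human HDAC9 from Sf-9 cells, Ni-NTA purified, preincubated with compound for 60 min at room temperature in Tris-HCl pH 7.5 buffer (MgCl2, KCl, NaCl, glutathione, Tween-20). HDAC-Glo class IIa substrate-developer added; luminescence read after 20 min, with no-enzyme wells defining 100% inhibition.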

T3 sequence (Q9UKV0 whole entry, species assumed): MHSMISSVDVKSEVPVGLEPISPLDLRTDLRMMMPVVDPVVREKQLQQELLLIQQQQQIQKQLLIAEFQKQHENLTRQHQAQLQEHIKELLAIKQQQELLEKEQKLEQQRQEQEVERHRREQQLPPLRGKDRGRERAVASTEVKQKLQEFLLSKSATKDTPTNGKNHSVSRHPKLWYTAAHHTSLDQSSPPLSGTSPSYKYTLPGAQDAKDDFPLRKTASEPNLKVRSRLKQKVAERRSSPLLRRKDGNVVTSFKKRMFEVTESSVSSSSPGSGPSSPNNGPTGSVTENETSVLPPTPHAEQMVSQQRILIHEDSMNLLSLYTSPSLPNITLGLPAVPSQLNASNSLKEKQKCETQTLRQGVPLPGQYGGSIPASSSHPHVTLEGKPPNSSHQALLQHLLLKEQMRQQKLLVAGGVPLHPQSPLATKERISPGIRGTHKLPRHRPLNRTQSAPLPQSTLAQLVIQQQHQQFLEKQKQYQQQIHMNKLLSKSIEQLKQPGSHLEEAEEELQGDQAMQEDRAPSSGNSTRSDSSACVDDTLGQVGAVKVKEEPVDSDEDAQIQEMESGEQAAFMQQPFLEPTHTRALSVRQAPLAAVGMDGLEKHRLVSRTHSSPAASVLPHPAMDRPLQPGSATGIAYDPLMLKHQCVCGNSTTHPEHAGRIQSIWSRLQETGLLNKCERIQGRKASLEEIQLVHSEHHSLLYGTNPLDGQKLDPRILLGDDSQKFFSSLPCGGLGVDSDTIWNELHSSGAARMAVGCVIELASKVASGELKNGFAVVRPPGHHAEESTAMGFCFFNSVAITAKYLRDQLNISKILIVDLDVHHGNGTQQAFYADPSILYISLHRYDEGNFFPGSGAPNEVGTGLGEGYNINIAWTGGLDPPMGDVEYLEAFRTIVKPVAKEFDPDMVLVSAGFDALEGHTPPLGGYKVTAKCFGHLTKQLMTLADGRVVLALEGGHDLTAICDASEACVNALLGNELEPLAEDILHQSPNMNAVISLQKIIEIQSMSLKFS

For the compound `CC(C)(O)C(=O)N[C@@H]1CCCC[C@H]1N1Cc2ccc(-c3noc(C(F)(F)F)n3)cc2C1=O` [Example 95, 2-hydroxy-2-methyl-N-((1R,2R)-2-(1-oxo-6-(5-(trifluoromethyl)-1,2,4-oxadiazol-3-yl)-1,3-dihydro-2H-isoindol-2-yl)cyclohexyl)propanamide], the inhibition at 1 µM came to 100% at HDAC6 enzyme, 3% at HDAC1 enzyme and 37% on HDAC9 enzyme.
In the same order, the values of `CC(C)(O)CC(=O)N[C@@H]1CCCC[C@H]1N1Cc2ccc(-c3noc(C(F)(F)F)n3)cc2C1=O` [Example 96, 3-hydroxy-3-methyl-N-((1R,2R)-2-(1-oxo-6-(5-(trifluoromethyl)-1,2,4-oxadiazol-3-yl)-1,3-dihydro-2H-isoindol-2-yl)cyclohexyl)butanamide] are 101%, 10% and 50%.
For `O=C(N[C@@H]1CCCC[C@H]1N1Cc2ccc(-c3noc(C(F)(F)F)n3)cc2C1=O)C1CCC1` [Example 97, N-((1R,2R)-2-(1-oxo-6-(5-(trifluoromethyl)-1,2,4-oxadiazol-3-yl)-1,3-dihydro-2H-isoindol-2-yl)cyclohexyl) cyclobutanecarboxamide] the same measures were 99%, 14% and 59%.
For the compound `O=C(N[C@@H]1CCCC[C@H]1N1Cc2ccc(-c3noc(C(F)(F)F)n3)cc2C1=O)C1C[C@@H]1F` (stereo partly drawn) [Example 98, 2-fluoro-N-((1R,2R)-2-(1-oxo-6-(5-(trifluoromethyl)-1,2,4-oxadiazol-3-yl)-1,3-dihydro-2H-isoindol-2-yl)cyclohexyl) cyclopropanecarboxamide], the values for the inhibition at 1 µM at HDAC6 enzyme, on HDAC1 enzyme and at HDAC9 enzyme were 99%, 4% and 55%, respectively.
For `CC1(C)C(C(=O)N[C@@H]2CCCC[C@H]2N2Cc3ccc(-c4noc(C(F)(F)F)n4)cc3C2=O)C1(C)C` [Example 99, 2,2,3,3-tetramethyl-N-((1R,2R)-2-(1-oxo-6-(5-(trifluoromethyl)-1,2,4-oxadiazol-3-yl)-1,3-dihydro-2H-isoindol-2-yl)cyclohexyl) cyclopropanecarboxamide] the same measures were 100%, 13% and 51%.
In the same order, the values of `CC(C)(C#N)C(=O)N[C@@H]1CCCC[C@H]1N1Cc2ccc(-c3noc(C(F)(F)F)n3)cc2C1=O` [Example 100, 2-cyano-2-methyl-N-((1R,2R)-2-(1-oxo-6-(5-(trifluoromethyl)-1,2,4-oxadiazol-3-yl)-1,3-dihydro-2H-isoindol-2-yl)cyclohexyl)propanamide] are 100%, 9% and 73%.
In the same order, the values of `Cn1cnc(C(=O)N[C@@H]2CCCC[C@H]2N2Cc3ccc(-c4noc(C(F)(F)F)n4)cc3C2=O)c1` [Example 101, 1-methyl-N-((1R,2R)-2-(1-oxo-6-(5-(trifluoromethyl)-1,2,4-oxadiazol-3-yl)-1,3-dihydro-2H-isoindol-2-yl)cyclohexyl)-1H-imidazole-4-carboxamide] are 98%, 12% and 68%.
Take `CC1CC1C(=O)N[C@@H]1CCCC[C@H]1N1Cc2ccc(-c3noc(C(F)(F)F)n3)cc2C1=O` (stereo partly drawn) [Example 102, 2-methyl-N-((1R,2R)-2-(1-oxo-6-(5-(trifluoromethyl)-1,2,4-oxadiazo-3-yl)-1,3-dihydro-2H-isoindol-2-yl)cyclohexyl) cyclopropanecarboxamide]: the inhibition at 1 µM at HDAC6 enzyme is 99%; on HDAC1 enzyme it was 7%; at HDAC9 enzyme, 52%.
For `O=C(N[C@@H]1CCCC[C@H]1N1Cc2ccc(-c3noc(C(F)(F)F)n3)cc2C1=O)c1cocn1` [Example 103, N-((1R,2R)-2-(1-oxo-6-(5-(trifluoromethyl)-1,2,4-oxadiazol-3-yl)-1,3-dihydro-2H-isoindol-2-yl)cyclohexyl)-1,3-oxazole-4-carboxamide] the same measures were 102%, 14% and 55%.
For `CN1CCC[C@H]1C(=O)N[C@@H]1CCCC[C@H]1N1Cc2ccc(-c3noc(C(F)(F)F)n3)cc2C1=O` [Example 104, 1-methyl-N-((1R,2R)-2-(1-oxo-6-(5-(trifluoromethyl)-1,2,4-oxadiazol-3-yl)-1,3-dihydro-2H-isoindol-2-yl)cyclohexyl)-L-prolinamide] the same measures were 98%, 3% and 43%.
In the same order, the values of `O=C(N[C@@H]1CCCC[C@H]1N1Cc2ccc(-c3noc(C(F)(F)F)n3)cc2C1=O)C1CC1(F)F` (stereo partly drawn) [Example 105, 2,2-difluoro-N-((1R,2R)-2-(1-oxo-6-(5-(trifluoromethyl)-1,2,4-oxadiazol-3-yl)-1,3-dihydro-2H-isoindol-2-yl)cyclohexyl) cyclopropanecarboxamide] are 100%, 7% and 50%.
Take `N#Cc1ccccc1C(=O)N[C@@H]1CCCC[C@H]1N1Cc2ccc(-c3noc(C(F)(F)F)n3)cc2C1=O` [Example 106, 2-cyano-N-((1R,2R)-2-(1-oxo-6-(5-(trifluoromethyl)-1,2,4-oxadiazol-3-yl)-1,3-dihydro-2H-isoindol-2-yl)cyclohexyl)benzamide]: the values for the inhibition at 1 µM on HDAC6 enzyme, at HDAC1 enzyme and on HDAC9 enzyme were 101%, 58% and 88%, respectively.
For `CC1(C)CC1C(=O)N[C@@H]1CCCC[C@H]1N1Cc2ccc(-c3noc(C(F)(F)F)n3)cc2C1=O` (stereo partly drawn) [Example 107, 2,2-dimethyl-N-((1R,2R)-2-(1-oxo-6-(5-(trifluoromethyl)-1,2,4-oxadiazol-3-yl)-1,3-dihydro-2H-isoindol-2-yl)cyclohexyl) cyclopropanecarboxamide] the same measures were 99%, 11% and 57%.
For `O=C1NCCC1C(=O)N[C@@H]1CCCC[C@H]1N1Cc2ccc(-c3noc(C(F)(F)F)n3)cc2C1=O` (stereo partly drawn) [Example 108, 2-oxo-N-((1Rr2R)-2-(1-oxo-6-(5-(trifluoromethyl)-l ,2,4-oxadiazol-3-yl)-1,3-dihydro-2H-isoindol-2-yl)cyclohexyl)pyrrolidine-3-carboxamide] the same measures were 97%, 2% and 35%.
For `O=C1NCC(C(=O)N[C@@H]2CCCC[C@H]2N2Cc3ccc(-c4noc(C(F)(F)F)n4)cc3C2=O)N1` (stereo partly drawn) [Example 109, 2-oxo-N-((1R,2R)-2-(1-oxo-6-(5-(trifluoromethyl)-1,2,4-oxadiazol-3-yl)-1,3-dihydro-2H-isoindol-2-yl)cyclohexyl)imidazolidine-4-carboxamide], the inhibition at 1 µM at HDAC6 enzyme was 71%; at HDAC1 enzyme, -2%; at HDAC9 enzyme it was 19%.
For `Cn1cncc1C(=O)N[C@@H]1CCCC[C@H]1N1Cc2ccc(-c3noc(C(F)(F)F)n3)cc2C1=O` [Example 110, 1-methyl-N-((1R,2R)-2-(1-oxo-6-(5-(trifluoromethyl)-1,2,4-oxadiazol-3-yl)-1,3-dihydro-2H-isoindol-2-yl)cyclohexyl)-1H-imidazole-5-carboxamide] the same measures were 99%, 18% and 73%.
